Earlier results in Sander's compilation of Henry's law constants (doi:10.1021/ci0256485).

Assay: Henry solubility constant Hcp at 298.15 K (mol/(m3 Pa))
Settings: reference: Delgado and Alderete (2003); cited value

Structure (SMILES) | Henry solubility constant Hcp
Cc1nnc(-c2ccccc2)c(=O)n1N [metamitron] | 2.2e+06
CCNc1nc(NC(C)C)nc(SC)n1 [ametryn] | 4100
